In US20050222383A1, “Prostasin substrates and inhibitors” (IRM LLC, priority 2004, published 2005):

Assays:
[1] = target: T1, prostasin (Homo sapiens, UniProt Q16651); assay: Cation/anion inhibition of prostasin activity against Ac-KHYR-acc; assay type: biochemical; conditions: read-out: Inhibition constants
T1 construct: eliminate the N-terminal signal peptide domain and light chain and the C-terminal GPI signal domain; honeybee melittin signal peptide (21 aa) (N); made in house; host or cells: Sf9 insect cells, baculovirus (Bac-to-Bac, pFastBac1)
T1 sequence (Q16651 45-322 limits assumed): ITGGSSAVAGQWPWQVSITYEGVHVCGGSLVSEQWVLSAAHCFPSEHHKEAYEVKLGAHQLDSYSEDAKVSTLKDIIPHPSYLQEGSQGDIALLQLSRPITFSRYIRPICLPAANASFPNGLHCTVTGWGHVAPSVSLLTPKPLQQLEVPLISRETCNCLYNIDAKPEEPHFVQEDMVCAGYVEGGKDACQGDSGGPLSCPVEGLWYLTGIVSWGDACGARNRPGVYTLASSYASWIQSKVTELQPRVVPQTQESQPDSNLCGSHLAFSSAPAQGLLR

[2] = target: T1, prostasin; assay: Prostasin assayed in tetrapeptide substrate libraries with a set concentration of sodium, calcium or zinc; assay type: biochemical; conditions: for effect on substrate specificity profile / decrease in activity across the libraries: tetrapeptide substrate libraries; for decrease in activity across the libraries: set concentration of ion
Procedure: P1-P4-Fluorogenic substrate libraries were synthesized as previously described (Wang et al, J. Biol. Chem., 278: 15800-15808, 2003). Prostasin was diluted in assay buffer and added to the library plates. In the two-position fixed tetrapeptide substrate library, the final substrate concentration was approximately 0.25 μM/substrate/well with a total of 361 substrates per well. Each variable position had one of 19 amino acids with cysteine excluded and methionine replaced by its isostere norleucine.
Further, prostasin was assayed in the tetrapeptide substrate libraries with a set concentration of sodium, calcium or zinc to determine the effect of each on overall substrate specificity.

[3] = target: T1, prostasin; assay: Assays with transition metals, prostasin activity with Ac-KHYR-acmc; assay type: biochemical; conditions: for enhancement effect: increase of enzymatic activity: Ac-KHYR-acmc substrate, sub inhibitory metal ion concentrations; for increases in IC50 values: assays with KHYR substrate
Procedure: (§1) Proteolytic activity of the purified prostasin was monitored by measuring the accumulation of the fluorophore 7-amino-3-carbamoylmethyl-4-methylcoumarin (acmc) or 7-amino-4-carbamoylmethylcoumarin (acc) produced by the cleavage of the tetrapeptide substrate Ac-KHYR-acmc, Ac-KHYR-acc or Ac-PRLR-acmc in assay buffer (50 mM Tris-Cl pH 9.0, 0.25% CHAPS; 10 mM CHES pH 9.0 (37° C.), 0.25% CHAPS; or 10 mM Hepes pH 7.4 (37° C.), 0.25% CHAPS) at 37° C. Assays were run in 96 or 384-well black microtiter plates. Data was collected with a Gemini XS plate reader (Molecular Devices) at λex=380 nm and λem=450 nm.

[4] = target: T1, prostasin; assay: Michaelis-Menten kinetics of KHYR-acmc and PRLR-acmc in the presence of zinc; assay type: biochemical
Procedure: as §1
The effect of zinc on the Michelis-Menten kinetics of KHYR-acmc and PRLR-acmc was measured in the presence of 20 μM zinc(II). […] The kcat of KHYR-acmc was 2.7 fold higher and the kcat of PRLR-acmc was 1.6 fold lower. These changes translated into a 30-fold increase in specificity for KHYR over PRLR in the presence of zinc.

[5] = target: T1, prostasin; assay: Inhibition assays of macromolecular inhibitors, prostasin activity against Ac-KHYR-acmc; assay type: biochemical; conditions: Ac-KHYR-acmc substrate, Tris-CHAPS buffer; read-out: classical inhibition constants (Ki)
Procedure: as §1
The inhibition constants of macromolecular inhibitors were calculated for prostasin. Prostasin activity against Ac-KHYR-acmc was measured in Tris-CHAPS buffer, as in “Enzyme Assays,” in the presence of 10 μM-170 pM aprotinin and soybean trypsin inhibitor (SBTI), 1 μM-17 pM α1-antitrypsin, and 200 nM-3.3 pM α1-antichymotrypsin. Rates were plotted in Prism (GraphPad) and classical inhibition constants (Ki) were calculated using the results of non-linear regression.

[6] = system: Xenopus kidney epithelial cell line; conditions: exposure of the apical membrane; cited from earlier work
[7] = Ac-KHYR-acc substrate, CHES-CHAPS buffer, 37° C.
[8] = in the presence of 20 μM zinc(II)

[Ca+2].[Cl-].[Cl-] [CaCl2]
Ki [1, 7]: 260 µM

[Cl-].[Cl-].[Co+2] [CoCl2]
Ki [1]: 5 µM

[Cl-].[K+] [KCl]
Ki [1, 7]: 5800 µM

[Cl-].[Li+] [LiCl]
Ki [1, 7]: 2400 µM

[Cl-].[Cl-].[Mg+2] [MgCl2]
Ki [1, 7]: 390 µM

[Cl-].[Na+] [NaCl]
Ki [1]: 5300 µM

[F-].[Na+] [NaF]
Ki [1, 7]: 4200 µM

[I-].[Na+] [NaI]
Ki [1, 7]: 4500 µM

[Ca+2] [calcium]
effect on substrate specificity profile [2]: Neither sodium nor calcium changed the substrate profile
decrease in activity across the libraries [2]: 25-35%

[Co+2] [cobalt]
enhancement effect: increase of enzymatic activity [3]: No enhancement in activity
increases in IC50 values [3]: 10 fold

[Cu+2] [copper]
increases in IC50 values [3]: 25 fold

[Ni+2] [nickel]
enhancement effect: increase of enzymatic activity [3]: 1.4 fold
increases in IC50 values [3]: 100 fold

[Na+] [sodium]
effect on substrate specificity profile [2]: Neither sodium nor calcium changed the substrate profile
decrease in activity across the libraries [2]: 50-60%

[Zn+2] [zinc]
increases in IC50 values [3]: 200 fold
relative increase in the activity of substrates with arginine in P1 and histidine in P3 ([2]; P1-P3 library): three fold relative increase
effect on substrate specificity profile [2]: did not alter the specificity profiles

Ac-KHYR-acmc
decrease in the Km [4, 8]: 4 fold
kcat higher [4, 8]: 2.7 fold
increase in specificity for KHYR over PRLR ([4]; in the presence of zinc): 30 fold

Ac-PRLR-acmc
increase in the Km [4, 8]: 2 fold
kcat lower [4, 8]: 1.6 fold

aprotinin
Ki [5]: 0.0025 µM
transepithelial sodium transport [6]: reduces transepithelial sodium transport

B1: α1-antichymotrypsin (protein, UniProt P01011 24-423, looked up)
Alpha-1-antichymotrypsin: HPNSPLDEENLTQENQDRGTHVDLGLASANVDFAFSLYKQLVLKAPDKNVIFSPLSISTALAFLSLGAHNTTLTEILKGLKFNLTETSEAEIHQSFQHLLRTLNQSSDELQLSMGNAMFVKEQLSLLDRFTEDAKRLYGSEAFATDFQDSAAAKKLINDYVKNGTRGKITDLIKDLDSQTMMVLVNYIFFKAKWEMPFDPQDTHQSRFYLSKKKWVMVPMMSLHHLTIPYFRDEELSCTVVELKYTGNASALFILPDQDKMEEVEAMLLPETLKRWRDSLEFREIGELYLPKFSISRDYNLNDILLQLGIEEAFTSKADLSGITGARNLAVSQVVHKAVLDVFEEGTEASAATAVKITLLSALVETRTIVRFNRPFLMIIVPTDTQNIFFMSKVTNPKQA
Ki [5]: > 0.2 µM
